Results taken from paper PMC6520443, “Molecular Fingerprints for a Novel Enzyme Family in Actinobacteria with Glucosamine Kinase Activity” (mBio, 2019).

Experiments:
[1] = biological target: T1, SjGlcNK (Streptacidiphilus jiangxiensis, UniProt A0A1H7TQR5); assay: kinase kinetics, Michaelis-Menten fit; type: biochemical; conditions: co-substrate ATP
T1 construct: gene SAMN05414137_114149; recombinant, E. coli BL21(DE3), nickel NTA and size exclusion; monomer in solution; C-lobe residues 194-438
T1 sequence (A0A1H7TQR5 1-438): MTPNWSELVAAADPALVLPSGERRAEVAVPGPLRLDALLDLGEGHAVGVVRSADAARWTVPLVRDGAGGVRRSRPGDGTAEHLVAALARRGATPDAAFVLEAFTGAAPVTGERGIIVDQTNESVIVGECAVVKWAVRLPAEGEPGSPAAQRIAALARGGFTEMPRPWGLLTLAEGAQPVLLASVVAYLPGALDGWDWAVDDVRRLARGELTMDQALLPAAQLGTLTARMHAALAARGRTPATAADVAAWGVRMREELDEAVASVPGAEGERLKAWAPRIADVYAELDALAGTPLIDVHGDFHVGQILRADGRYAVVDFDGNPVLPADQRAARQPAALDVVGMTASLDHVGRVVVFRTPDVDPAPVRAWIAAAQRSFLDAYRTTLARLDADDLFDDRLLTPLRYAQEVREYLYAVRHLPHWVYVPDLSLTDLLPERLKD

[2] = biological target: T2, MvMak (Mycolicibacterium austroafricanum, UniProt A1TH50); assay: ADP-Glo kinase assay, relative activity; type: biochemical; conditions: 5 mM sugar, 1 mM ATP, 2 μM enzyme, room temperature, 5 min
T2 construct: gene mak; recombinant, produced as previously described
T2 sequence (A1TH50 whole entry): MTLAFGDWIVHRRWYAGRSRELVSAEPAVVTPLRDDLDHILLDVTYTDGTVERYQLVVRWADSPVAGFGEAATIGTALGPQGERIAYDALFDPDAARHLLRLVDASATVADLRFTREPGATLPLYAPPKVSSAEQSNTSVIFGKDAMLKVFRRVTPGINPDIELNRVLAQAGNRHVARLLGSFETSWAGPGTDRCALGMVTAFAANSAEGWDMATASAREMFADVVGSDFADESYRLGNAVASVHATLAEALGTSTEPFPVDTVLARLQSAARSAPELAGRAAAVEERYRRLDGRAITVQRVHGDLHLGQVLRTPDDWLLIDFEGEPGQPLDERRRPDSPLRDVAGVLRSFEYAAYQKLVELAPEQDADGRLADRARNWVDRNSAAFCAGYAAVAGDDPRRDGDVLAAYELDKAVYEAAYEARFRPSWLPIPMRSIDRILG

Km [1]	SMILES	ADP-Glo kinase assay, relative activity [2]
> 100 mM	OC[C@H]1OC(O)[C@H](O)[C@@H](O)[C@@H]1O (some centres unmarked) [glucose]	–
–	OC[C@H]1O[C@H](O[C@H]2[C@H](O)[C@@H](O)C(O)O[C@@H]2CO)[C@H](O)[C@@H](O)[C@@H]1O (some centres unmarked) [maltose]	MvMak uses exclusively maltose as the substrate acceptor
